Patent US7723325B2, “5-amido-indole-2-carboxamide derivatives” (Hoffman-La Roche Inc., priority 2006, dated 2010)
pKi: −log10 of the molar value.

biological target: T1, histamine 3 receptor (H3R) (Homo sapiens, UniProt Q9Y5N1); test: Binding assay with 3H-(R)α-Methylhistamine (competition binding, HR3-CHO membranes); settings: competition binding vs 3H(R)α-Methylhistamine (1 nM), membrane of the human HR3-CHO cell line; Ki calculated from IC50 (Cheng-Prusoff)
T1 construct: expressed in transfected cells; host or cells: CHO
Procedure: Binding Assay with ^3H—(R)α-Methylhistamine
Saturation binding experiments were performed using HR3-CHO membranes prepared as described in Takahashi, K, Tokita, S., Kotani, H. (2003) J. Pharmacol. Exp. Therapeutics 307, 213-218.
An appropriate amount of membrane (60 to 80 μg protein/well) was incubated with increasing concentrations of ^3H(R)α-Methylhistamine di-hydrochloride (0.10 to 10 nM). Non specific binding was determined using a 200 fold excess of cold (R)α-Methylhistamine dihydrobromide (500 nM final concentration). The incubation was carried out at room temperature (in deep-well plates shaking for three hours). The final volume in each well was 250 μl. The incubation was followed by rapid filtration on GF/B filters (pre-soaked with 100 μl of 0.5% PEI in Tris 50 mM shaking at 200 rpm for two hours). The filtration was made using a cell-harvester and the filter plates were then washed five times with ice cold washing buffer containing 0.5 M NaCl. After harvesting, the plates were dried at 55° C. for 60 min, then we added scintillation fluid (Microscint 40, 40 microl in each well) and the amount of radioactivity on the filter was determined in Packard top-counter after shaking the plates for two hours at 200 rpm at room temperature.
Binding Buffer: 50 mM Tris-HCl pH 7.4 and 5 mM MgCl2x6H2O pH 7.4. Washing Buffer: 50 mM Tris-HCl pH 7.4 and 5 mM MgCl2x6H2O and 0.5 M NaCl pH 7.4.
Indirect measurement of affinity of H3R inverse agonists: twelve increasing concentrations (ranging from 10 μM to 0.3 nM) of the selected compounds were always tested in competition binding experiments using membrane of the human HR3-CHO cell line. An appropriate amount of protein, e.g. approximately 500 cpm binding of RAMH at Kd, were incubated for 1 hour at room temperature in 250 μl final volume in 96-well plates in presence of ^3H(R)α-Methylhistamine (1 nM final concentration=Kd). Non-specific binding was determined using a 200 fold excess of cold (R)α-Methylhistamine dihydrobromide.
All compounds were tested at a single concentration in duplicates. […] Ki's were calculated from IC50 based on Cheng-Prusoff equation (Cheng, Y, Prusoff, W H (1973) Biochem Pharmacol 22, 3099-3108).

T1 sequence (Q9Y5N1 whole entry): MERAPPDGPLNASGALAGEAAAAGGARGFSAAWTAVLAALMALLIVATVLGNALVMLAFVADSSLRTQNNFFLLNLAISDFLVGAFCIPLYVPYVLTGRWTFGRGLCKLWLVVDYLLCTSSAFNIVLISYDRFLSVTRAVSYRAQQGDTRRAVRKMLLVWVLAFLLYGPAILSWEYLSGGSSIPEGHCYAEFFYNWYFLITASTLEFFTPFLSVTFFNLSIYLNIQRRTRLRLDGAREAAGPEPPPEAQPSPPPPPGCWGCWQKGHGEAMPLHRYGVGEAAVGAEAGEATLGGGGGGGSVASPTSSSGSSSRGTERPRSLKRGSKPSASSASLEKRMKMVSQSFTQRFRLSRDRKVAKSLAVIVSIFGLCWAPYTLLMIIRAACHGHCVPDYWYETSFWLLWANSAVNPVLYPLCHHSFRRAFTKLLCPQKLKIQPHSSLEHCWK

Row | SMILES | pKi
1 | O=C(c1ccc2[nH]c(C(=O)N3CCCCC3)cc2c1)N1CCN(C2CCCC2)CC1 [Example 5, [5-(4-Cyclopentyl-piperazine-1-carbonyl)-1H-indol-2-yl]-piperidin-1-yl-methanone] | 7.54
2 | COc1cccc(-n2c(C(=O)N3CCC(F)(F)CC3)cc3cc(C(=O)N4CCN(C5CCCC5)CC4)ccc32)c1 [Example 84, [5-(4-Cyclopentyl-piperazine-1-carbonyl)-1-(3-methoxy-phenyl)-1H-indol-2-yl]-(4,4-difluoro-piperidin-1-yl)-methanone] | 7.45
3 | CC(C)N1CCN(C(=O)c2ccc3c(c2)cc(C(=O)N2CCS(=O)(=O)CC2)n3-c2cccc(Cl)c2)CC1 [Example 97, [1-(3-Chloro-phenyl)-5-(4-isopropyl-piperazine-1-carbonyl)-1H-indol-2-yl]-(1,1-dioxo-thiomorpholin-4-yl)-methanone] | 7.87
4 | CC(C)N1CCN(C(=O)c2ccc3c(c2)cc(C(=O)N2CCC(F)(F)CC2)n3C2CCC2)CC1 [Example 150, [1-Cyclobutyl-2-(4,4-difluoro-piperidine-1-carbonyl)-1H-indol-5-yl]-(4-isopropyl-piperazin-1-yl)-methanone] | 7.60
5 | CC(C)N1CCN(C(=O)c2ccc3c(c2)cc(C(=O)N2CCS(=O)(=O)CC2)n3-c2ccc(S(C)(=O)=O)cc2)CC1 [Example 221, (1,1-Dioxothiomorpholin-4-yl)-[5-(4-isopropyl-piperazine-1-carbonyl)-1-(4-methanesulfonyl-phenyl)-1H-indol-2-yl]-methanone] | 7.65
6 | CC(C)N1CCCN(C(=O)c2ccc3[nH]c(C(=O)N4CCS(=O)(=O)CC4)cc3c2)CC1 [Example 245, (1,1-Dioxo-thiomorpholin-4-yl)-[5-(4-isopropyl-[1,4]diazepane-1-carbonyl)-1H-indol-2-yl]-methanone] | 7.39
